# Reference: patent publication EP2465840A1, “Terpene ether” (CABB GmbH, priority 2010, dated 2012)
# “Also recorded” adds a separate entry of the source.
# Assays:
# Assay type in all cases: physicochemical
# [1] = Foam height and foam stability of formulation; conditions: Reinigungsformulierung enthaltend Dinatriumlaurylsuccinat (wässrig); for h1: Schaumhöhe 5 Minuten nach dem Mischen; for h1 / h0: Lösung mit 0,5 % WAS; for h0: Schaumhöhe eine Minute nach dem Mischen; for Stabilität: Schaumstabilität (h1/h0)*100
# Method: Die Schaumhöhe der Formulierungen wurde nach folgender Methode ermittelt: In einem 400 ml Becher wurden 100 g einer wässrigen Lösung mit 0,5 % WAS hergestellt. Für eine Minute wurde die Lösung bei […] runden […] wurde die […] Minute […]0) und 5 […]. Die Schaumstabilität in % ergibt sich dann über (h1/h0)*100.
# [2] = Brookfield viscosity (25°C) of cleaning formulation 24 h after addition of terpene ether
# Method: Im Rahmen der vorliegenden Erfindung wird die Brookfield-Viskosität einer wässrigen Zusammensetzung vorzugsweise mittels einem RTV Brookfield-Viskosimeter bei 25°C ermittelt, besonders bevorzugt mit einer Spindel # 3 oder # 4.
# Die in Tabelle 1 angegebene Reinigungsformulierung wurde untersucht. Tabelle 1: Reinigungsformulierung (WAS 15 %)
# Zu dieser Formulierung wurden NP 1 oder NP 27 gegeben. Die gemessenen Brookfield-Viskositätswerte nach 24 Stunden werden in Tabelle 2 und 3 zusammengefasst. Tabelle 2: Brookfield-Viskosität (25°C)
# Zu dieser Formulierung wurden NP 1 oder NP 27 sowie danach Natriumchlorid gegeben. Die gemessenen Brookfield-Viskositätswerte nach 24 Stunden werden in den folgenden Tabellen zusammengefasst. Tabelle 13: Brookfield-Viskosität (25°C)
# [3] = Appearance of cleaning formulation after 24 h
# [4] = Visual evaluation of foam (foam appearance, bubble size); parameters: key to Blasengröße nach 1 min. / Blasengröße nach 5 min.: klein (1); mittel (2); mittel-groß (3); groß (4); sehr groß (5); key to Aussehen des Schaums nach 1 min. / Aussehen des Schaums nach 5 min.: verschwindend (1); locker (2); mittelkompakt (3); sehr kompakt (4); conditions: Reinigungsformulierung enthaltend Dinatriumlaurylsuccinat (wässrig)
# Method: Die Qualität des Schaums wurde visuell nach der folgenden Methode festgestellt: 100 g der Lösung mit 0,5 % WAS wurden in einen 250 ml Glaszylinder mit Schraubverschluss und einem Innendurchmesser von 35 mm überführt. Der Zylinder wurde 10 mal gedreht und die Blasengröße und die Schaumkompaktheit wurden nach einer Minute nach dem Mischen und nach 5 Minuten ermittelt. Dabei erfolgte die Beurteilung auf der Grundlage der folgenden beschreibenden Parameter:
# Aussehen des Schaums: verschwindend (1), locker (2), mittelkompakt (3), sehr kompakt (4)
# Blasengröße: klein (1), mittel (2), mittel-groß (3), groß (4), sehr groß (5) Tabelle 4: […]
# [5] = pH of cleaning formulation after addition of terpene ether
# [6] = Reinigungsformulierung enthaltend Coco Glucosid, +0,5 %
# [7] = Reinigungsformulierung enthaltend Coco Glucosid, +1 %
# [8] = Reinigungsformulierung enthaltend Coco Glucosid, +5 %
# [9] = Reinigungsformulierung enthaltend Dinatriumlaurylsuccinat (wässrig), +0,5 %, nach 24 Stunden
# [10] = Reinigungsformulierung enthaltend Dinatriumlaurylsuccinat (wässrig), +1 %, nach 24 Stunden
# [11] = Reinigungsformulierung enthaltend Dinatriumlaurylsuccinat (wässrig), +5 %, nach 24 Stunden
# [12] = Reinigungsformulierung enthaltend Natriumlaurylethersulfat, Dinatriumcocoamphodiacetat, 0,5 % NaCl, +0,5 %, nach 24 Stunden
# [13] = Reinigungsformulierung enthaltend Natriumlaurylethersulfat, Dinatriumcocoamphodiacetat, 0,5 % NaCl, +0,25 %, nach 24 Stunden
# [14] = Reinigungsformulierung enthaltend Natriumlaurylethersulfat, Dinatriumcocoamphodiacetat, 0,5 % NaCl, +1 %, nach 24 Stunden
# [15] = Reinigungsformulierung enthaltend Natriumlaurylethersulfat, Dinatriumcocoamphodiacetat, 0,5 % NaCl, +2 %, nach 24 Stunden
# [16] = Reinigungsformulierung enthaltend Natriumlaurylethersulfat, Dinatriumcocoamphodiacetat, 1 % NaCl, +0,5 %, nach 24 Stunden
# [17] = Reinigungsformulierung enthaltend Natriumlaurylethersulfat, Dinatriumcocoamphodiacetat, 1 % NaCl, +0,25 %, nach 24 Stunden
# [18] = Reinigungsformulierung enthaltend Natriumlaurylethersulfat, Dinatriumcocoamphodiacetat, 1 % NaCl, +1 %, nach 24 Stunden
# [19] = Reinigungsformulierung enthaltend Natriumlaurylethersulfat, Dinatriumcocoamphodiacetat, 1 % NaCl, +2 %, nach 24 Stunden
# [20] = Reinigungsformulierung enthaltend Natriumlaurylethersulfat, Dinatriumcocoamphodiacetat, +0,5 %, nach 24 Stunden
# [21] = Reinigungsformulierung enthaltend Natriumlaurylethersulfat, Dinatriumcocoamphodiacetat, +0,25 %, nach 24 Stunden
# [22] = Reinigungsformulierung enthaltend Natriumlaurylethersulfat, Dinatriumcocoamphodiacetat, +1 %, nach 24 Stunden
# [23] = Reinigungsformulierung enthaltend Natriumlaurylethersulfat, Dinatriumcocoamphodiacetat, +2 %, nach 24 Stunden
# [24] = Reinigungsformulierung enthaltend Dinatriumlaurylsuccinat (wässrig), +0,5 %
# [25] = Reinigungsformulierung enthaltend Dinatriumlaurylsuccinat (wässrig), +1 %
# [26] = Reinigungsformulierung enthaltend Dinatriumlaurylsuccinat (wässrig), +5 %
smiles,measurement,setting,value
CC1(C)C2CCC1(C)C(OCC1COC(=O)O1)C2 (stereo not drawn) [NP 27],h1,"[1]; 0,5 %",210 mm
same,h0,"[1]; 0,5 %",240 mm
same,Stabilität,"[1]; 0,5 %",88%
same,h1,[1]; 1 %,180 mm
same,h0,[1]; 1 %,215 mm
same,Stabilität,[1]; 1 %,84%
same,h1,[1]; 5 %,175 mm
same,h0,[1]; 5 %,210 mm
same,Stabilität,[1]; 5 %,83%
same,"BF-Viskosität (2,5 rpm)",[2]; [6],16400 mPas
same,BF-Viskosität (5 rpm),[2]; [6],15800 mPas
same,"BF-Viskosität (2,5 rpm)",[2]; [7],1000 mPas
same,BF-Viskosität (5 rpm),[2]; [7],900 mPas
same,"BF-Viskosität (2,5 rpm)",[2]; [8],80 mPas
same,BF-Viskosität (5 rpm),[2]; [8],60 mPas
same,"BF-Viskosität (2,5 rpm)",[2]; [9],6800 mPas
same,BF-Viskosität (5 rpm),[2]; [9],6800 mPas
same,"BF-Viskosität (2,5 rpm)",[2]; [10],30400 mPas
same,BF-Viskosität (5 rpm),[2]; [10],27800 mPas
same,"BF-Viskosität (2,5 rpm)",[2]; [11],60 mPas
same,BF-Viskosität (5 rpm),[2]; [11],40 mPas
same,"BF-Viskosität (2,5 rpm)",[2]; [12],35200 mPas
same,BF-Viskosität (5 rpm),[2]; [12],31000 mPas
same,"BF-Viskosität (2,5 rpm)",[2]; [13],19600 mPas
same,BF-Viskosität (5 rpm),[2]; [13],19000 mPas
same,"BF-Viskosität (2,5 rpm)",[2]; [14],40800 mPas
same,BF-Viskosität (5 rpm),[2]; [14],36800 mPas
same,"BF-Viskosität (2,5 rpm)",[2]; [15],7400 mPas
same,BF-Viskosität (5 rpm),[2]; [15],7200 mPas
same,"BF-Viskosität (2,5 rpm)",[2]; [16],46400 mPas
same,BF-Viskosität (5 rpm),[2]; [16],40400 mPas
same,"BF-Viskosität (2,5 rpm)",[2]; [17],33200 mPas
same,BF-Viskosität (5 rpm),[2]; [17],29000 mPas
same,"BF-Viskosität (2,5 rpm)",[2]; [18],43200 mPas
same,BF-Viskosität (5 rpm),[2]; [18],38800 mPas
same,"BF-Viskosität (2,5 rpm)",[2]; [19],4000 mPas
same,BF-Viskosität (5 rpm),[2]; [19],3800 mPas
same,"BF-Viskosität (2,5 rpm)",[2]; [20],15600 mPas
same,BF-Viskosität (5 rpm),[2]; [20],15000 mPas
same,"BF-Viskosität (2,5 rpm)",[2]; [21],9200 mPas
same,BF-Viskosität (5 rpm),[2]; [21],8700 mPas
same,"BF-Viskosität (2,5 rpm)",[2]; [22],27600 mPas
same,BF-Viskosität (5 rpm),[2]; [22],25600 mPas
same,"BF-Viskosität (2,5 rpm)",[2]; [23],12800 mPas
same,BF-Viskosität (5 rpm),[2]; [23],12400 mPas
same,Aussehen nach 24 h,[3]; [6],transparent Gel-flüssig
same,Aussehen nach 24 h,[3]; [7],opaleszent Phasenseparation
same,Aussehen nach 24 h,[3]; [8],weiß Phasenseparation
same,Aussehen nach 24 h,[3]; [24],transparent; also recorded: flüssig
same,Aussehen nach 24 h,[3]; [25],transparent and Gel
same,Aussehen nach 24 h,[3]; [26],Weiß and Flüssig
same,Aussehen nach 24 h,"[3]; Reinigungsformulierung enthaltend Natriumlaurylethersulfat, Dinatriumcocoamphodiacetat, 0,5 % NaCl, +0,5 %",transparent Gel
same,Aussehen nach 24 h,"[3]; Reinigungsformulierung enthaltend Natriumlaurylethersulfat, Dinatriumcocoamphodiacetat, 0,5 % NaCl, +0,25 %",transparent Gel-flüssig
same,Aussehen nach 24 h,"[3]; Reinigungsformulierung enthaltend Natriumlaurylethersulfat, Dinatriumcocoamphodiacetat, 0,5 % NaCl, +1 %",transparent Gel
same,Aussehen nach 24 h,"[3]; Reinigungsformulierung enthaltend Natriumlaurylethersulfat, Dinatriumcocoamphodiacetat, 0,5 % NaCl, +2 %",opaleszent flüssig
same,Aussehen nach 24 h,"[3]; Reinigungsformulierung enthaltend Natriumlaurylethersulfat, Dinatriumcocoamphodiacetat, 1 % NaCl, +0,5 %",transparent Gel
same,Aussehen nach 24 h,"[3]; Reinigungsformulierung enthaltend Natriumlaurylethersulfat, Dinatriumcocoamphodiacetat, 1 % NaCl, +0,25 %",transparent Gel
same,Aussehen nach 24 h,"[3]; Reinigungsformulierung enthaltend Natriumlaurylethersulfat, Dinatriumcocoamphodiacetat, 1 % NaCl, +1 %",transparent Gel
same,Aussehen nach 24 h,"[3]; Reinigungsformulierung enthaltend Natriumlaurylethersulfat, Dinatriumcocoamphodiacetat, 1 % NaCl, +2 %",weiß flüssig
same,Aussehen nach 24 h,"[3]; Reinigungsformulierung enthaltend Natriumlaurylethersulfat, Dinatriumcocoamphodiacetat, +0,5 %",transparent Gel-flüssig
same,Aussehen nach 24 h,"[3]; Reinigungsformulierung enthaltend Natriumlaurylethersulfat, Dinatriumcocoamphodiacetat, +0,25 %",transparent flüssig
same,Aussehen nach 24 h,"[3]; Reinigungsformulierung enthaltend Natriumlaurylethersulfat, Dinatriumcocoamphodiacetat, +1 %",transparent Gel
same,Aussehen nach 24 h,"[3]; Reinigungsformulierung enthaltend Natriumlaurylethersulfat, Dinatriumcocoamphodiacetat, +2 %",opaleszent flüssig
same,Aussehen des Schaums nach 1 min.,"[4]; +0,5 %",2
same,Aussehen des Schaums nach 5 min.,"[4]; +0,5 %",1
same,Blasengröße nach 1 min.,"[4]; +0,5 %",4
same,Blasengröße nach 5 min.,"[4]; +0,5 %",5
same,Aussehen des Schaums nach 1 min.,[4]; +1 %,3
same,Aussehen des Schaums nach 5 min.,[4]; +1 %,1
same,Blasengröße nach 1 min.,[4]; +1 %,3
same,Blasengröße nach 5 min.,[4]; +1 %,5
same,Aussehen des Schaums nach 1 min.,[4]; +5 %,3
same,Aussehen des Schaums nach 5 min.,[4]; +5 %,1
same,Blasengröße nach 1 min.,[4]; +5 %,4
same,Blasengröße nach 5 min.,[4]; +5 %,5
same,pH,[5]; [6],6
same,pH,[5]; [7],6
same,pH,[5]; [8],"6,1"
same,pH,[5]; [24],"6,3"
same,pH,[5]; [25],"6,35"
same,pH,[5]; [26],"6,4"
